Here are results for eight molecules from US20020107193A1, “Therapeutic uses for IP3 receptor-mediated calcium channel modulators” (priority 2000, published 2002).

One series deals with IP3 receptor. The following applies: Gafni et al., 1997; cited from earlier work.
Series [1] deals with NF-κB. The experiment in a line: Cell-free EMSA of NF-κB binding activity in brain cortex cytoplasmic fraction. The format is biochemical, rat. The settings on record: 1 h; calcium 1 μM to 10 mM; 10 μM BAPTA-AM alone or with 10 μM calcium. The method, then:
(§1) Total cell extracts were prepared as described (Baeuerle and Baltimore, 1988, Cell 53:211-217). Briefly, cells were harvested, washed twice with ice-cold PBS and lysed for 30 min at 4° C. in Totex buffer (20 mM HEPES, pH 7.9, 350 mM NaC1, 20% glycerol, 1% NP-40, 1 mM MgC12, 0.5 mM EDTA, 0.1 mM EGTA, 5 mM DTT, 0.1% PMSF, 1% aprotinin, 4 μg/ml leupeptin). Samples were centrifuged at 14,000× g for 10 min and aliquots of supernatant were collected and stored at −70° C. until taken for assay. The protein content of the extract (supernatant) was measured by Bradford method (BIO-RAD Laboratories, Ercules, Calif., USA). […]
(§2) After 20 min at room temperature, reaction products were separated on a 7% non-denaturing polyacrylamide gel. […] Radioactivity of dried gels was detected by exposure to Kodak X-Omat film and images on the developed film were scanned into a computer using a UMAX 1200s scanner. […]
On the technique in general: In EMSA bound probe runs differently from free probe, usually more slowly.

Series [2] concerns IP3 receptors on microsomes. Nature of the series: Microsome extract (MSE) effect on cytoplasmic NF-κB binding activity. Type of series: biochemical, rat. The following applies: direct activation of IP3 receptors on microsomes with IP3. Here is the method: Cerebral cortices from adult female Sprague-Dawley rats were homogenized (20 strokes at 300 rpm) with a Teflon homogenizer in ice-cold buffer containing 1 mM EDTA, 0.32 M sucrose, 0.1 mM dithiothreitol and 1 mM HEPES as described previously (Chen et al., 1998, Diabetes 47:874-81) and cytoplasmic and microsome fractions were isolated by differential centrifugation. Briefly, tissue fragments and cellular debris were removed by centrifugation at 500 g for 10 min and supernatants were centrifuged at 20,000 g for 20 min to pellet intact mitochondria and nuclei. The supernatant was then centrifuged at 100,000 g for 1 h in order to obtain the cytoplasmic fraction and the microsomal pellet enriched in endoplasmic reticulum and golgi membranes. Microsome extracts (MSE) were prepared by suspending microsomes in 1:100 v/v ice-cold buffer and centrifuging at 100,000× g for 1 hr. Microsomes were then re-suspended in 1:2 v/v volume buffer and treated as described below. At the end of the treatment, the suspension was centrifuged at 100,000 g for 1 h, and supernatants were used as MSE. For experiments involving incubation of MSE with cytoplasmic extract, 3 μl of MSE were added to 10 μl cytoplasmic extract and mixtures were incubated at room temperature for 1 h.
[…] After 1 h at room temperature, samples were examined for NF-κB binding activity.
Indeed, the role calcium plays in this paradigm seems to be as an intraluminal signal.

Series [3] has as its system NF-κB. Nature of the series: EMSA of NF-κB binding activity in cultured primary cortical neurons. The format is cell-based, rat. The settings on record: 6 h; for induction of NF-κB binding activity by the agent alone: cortical neurons, 100 ng/ml TNFα, 100 nM Tg or 20 μM glutamate. The method, then:
Cerebral cortices were removed from embryonic day 18 Sprague-Dawley rats (Harlan, Indianapolis, Ind.). Cells were dissociated as described previously (Mattson et al., 1995, J. Neurochem. 65:1740-1751.) and were seeded into polyethyleneimine-coated 60 mm culture dishes containing Eagle's Minimum Essential Medium supplemented with 26 mM NaHCO3, 40 mM glucose, 20 mM KCl, 1 mM sodium pyruvate, 10% (v/v) heat-inactivated fetal bovine serum (Sigma, St. Louis, Mo.), and 0.001% gentamycin sulfate. After a 3-5 h incubation period to allow for cell attachment, the medium was replaced with 2 ml of Neurobasal Medium with B27 supplements (GIBCO Life Technologies, Grand Island, N.Y.). […] Experimental treatments were performed on 7-to-9-day-old neuronal cultures in which there were approximately 5% contaminating glial cells.
Total cell extracts were prepared as described (Baeuerle and Baltimore, 1988, Cell 53:211-217). Briefly, cells were harvested, washed twice with ice-cold PBS and lysed for 30 min at 4° C. in Totex buffer (20 mM HEPES, pH 7.9, 350 mM NaC1, 20% glycerol, 1% NP-40, 1 mM MgC12, 0.5 mM EDTA, 0.1 mM EGTA, 5 mM DTT, 0.1% PMSF, 1% aprotinin, 4 μg/ml leupeptin). Samples were centrifuged at 14,000× g for 10 min and aliquots of supernatant were collected and stored at −70° C. until taken for assay. The protein content of the extract (supernatant) was measured by Bradford method (BIO-RAD Laboratories, Ercules, Calif., USA).
After 20 min at room temperature, reaction products were separated on a 7% non-denaturing polyacrylamide gel. Competition experiments were performed by incubating extracts with labeled oligonucleotide probe in the presence of 100-fold molar excess unlabeled NF-KB or CREB oligonucleotide. To characterize the NF-KB complexes, supershift assays were performed. Extracts were preincubated for 45 min at room temperature with antibodies recognizing either p50 or p65 sub-units of NF-κB (Santa Cruz Biotechnology, Santa Cruz, Calif.) or c-Fos (Oncogene Research Products, Cambridge, Mass.). The mixtures were further incubated with ^32P-labeled probe and resolved as described above. Radioactivity of dried gels was detected by exposure to Kodak X-Omat film and images on the developed film were scanned into a computer using a UMAX 1200s scanner. Densitometry was performed using Scion Image software (Scion Inc., Frederick, Md.). Paint Shop Pro software (JASC Inc. Minneapolis, Minn.) was used for preparation of the final figures.
(§3) The possible involvement of endoplasmic reticulum pools of intracellular calcium regulated by IP3 receptors in controlling basal levels of NF-κB was investigated using Xestospongin C (XeC) a specific membrane permeable modulator of IP3-mediated Ca^2+release (Gafni et al., 1997, Neuron 19:723-733; Hu et al., 1999, J. Biol. Chem. 274:33995-33998), and thapsigargin (Tg), a specific inhibitor of ER calcium/ATPase (Thastrup et al., 1990, Proc. Natl. Acad. Sci. USA 87:2466-2470; Davidson and Varhol, 1995, J. Biol. Chem. 270:11731-11734.). Cultured primary cortical neurons were treated with either 1 μM XeC, 100 nM Tg or vehicle for 6 h and protein extracts were analyzed for NF-κB binding activity by EMSA electrophoresis.

Series [4] concerns CREB. The experiment in a line: EMSA of CREB binding activity in cultured primary cortical neurons. The format is cell-based, rat. The method, then: Cerebral cortices were removed from embryonic day 18 Sprague-Dawley rats (Harlan, Indianapolis, Ind.). Cells were dissociated as described previously (Mattson et al., 1995, J. Neurochem. 65:1740-1751.) and were seeded into polyethyleneimine-coated 60 mm culture dishes containing Eagle's Minimum Essential Medium supplemented with 26 mM NaHCO3, 40 mM glucose, 20 mM KCl, 1 mM sodium pyruvate, 10% (v/v) heat-inactivated fetal bovine serum (Sigma, St. Louis, Mo.), and 0.001% gentamycin sulfate. After a 3-5 h incubation period to allow for cell attachment, the medium was replaced with 2 ml of Neurobasal Medium with B27 supplements (GIBCO Life Technologies, Grand Island, N.Y.). Previous observations have shown that greater than 80% of the cells that attach in the first few hours after plating will survive longer than 7 days in Neurobasal Medium with no additional neurotrophic factors. Experimental treatments were performed on 7-to-9-day-old neuronal cultures in which there were approximately 5% contaminating glial cells.
as §1, §2, §3

The subject of series [5] is CREB. The experiment in a line: Cell-free EMSA of CREB binding activity in brain cortex cytoplasmic fraction. The format is biochemical, rat. The following applies: calcium 10 μM, 100 μM and 1 mM, 1 h. The method, then: as §1, §2

`C1CCC[C@H]2CCCN3CC[C@H](CCCCCC[C@H]4CCCN5CC[C@H](CC1)O[C@H]45)O[C@H]23` [ArB, Araguspongine B]: in the series on IP3 receptor, the “block of IP3-mediated calcium release” value is “potent blockers”. For `CC(=O)OCOC(=O)CN(CC(=O)OCOC(C)=O)c1ccccc1OCCOc1ccccc1N(CC(=O)OCOC(C)=O)CC(=O)OCOC(C)=O` [BAPTA-AM], the “NF-κB binding activity in cytoplasmic fraction” value in the series with NF-κB [1] is listed as “had no affect”. As for `O[C@@]12CCCCCC[C@H]3CCN4CCC[C@@H](CCCCCC[C@H]5CCN(CCC1)[C@@H]2O5)[C@H]4O3` [DMXeB, demethylxestospongin B], the “block of IP3-mediated calcium release” value in the series with IP3 receptor was “potent blockers”.

For the molecule `O=P(O)(O)O[C@@H]1[C@H](O)[C@H](O)[C@@H](OP(=O)(O)O)[C@H](OP(=O)(O)O)[C@H]1O` [IP3, inositol-1,4,5 triphosphate, reference compound], the “NF-κB stimulating properties of MSE from treated microsomes” value in series [2] was “NF-κB stimulating properties similar to that seen with Tg”. Regarding `C/C=C(/C)C(=O)O[C@H]1C(C)=C2[C@H]([C@@H]1OC(=O)CCCCCCC)[C@@](C)(OC(C)=O)C[C@H](OC(=O)CCC)[C@@]1(O)[C@H]2OC(=O)[C@@]1(C)O` [Tg, thapsigargin, reference compound], in the series on NF-κB [3], the “induction of NF-κB binding activity by the agent alone” value is listed as “Induction of NF-κB binding activity was observed”. Moreover, the “basal NF-κB binding activity relative to control levels” value in the series on NF-κB [3] (cultured primary cortical neurons, 1 μM XeC or 100 nM Tg, EMSA) is given as “statistically significant (p<0.05) elevation”. For the same molecule, the CREB binding activity entry in the series on CREB [4] (cultured primary cortical neurons, 6 h, 1 μM XeC or 100 nM Tg, data not shown) is “slightly augmented CREB binding activity; however, this was not statistically significant”.

Regarding `O[C@@]12CCCCCC[C@H]3CCN4CCC[C@H](CCCCCC[C@H]5CCN(CCC1)[C@@H]2O5)[C@H]4O3` [XeD], the “block of IP3-mediated calcium release” value in the series with IP3 receptor is “potent blockers”.

Regarding `[Ca+2]` [calcium], the “NF-κB binding activity in cytoplasmic fraction” value in the series on NF-κB [1] is given as “none of the calcium concentrations used increased NF-κB binding activity”. Also, the “CREB binding activity in cytoplasmic fraction” value with CREB [5] is listed as “greatly enhanced”. For “tumor necrosis factor α [TNFα, reference compound]”, in the series on NF-κB [3], the “induction of NF-κB binding activity by the agent alone” value is given as “statistically significant (p<0.05) enhancement”. In the series with CREB [4] (cortical neurons, XeC 30 min pretreatment, 100 ng/ml TNFα 6 h, FIG. 2a), the “binding activity of CREB, agent alone” value was “neither TNFα nor XeC alone affected the binding activity of CREB”.
